Laboratory results published in ChEMBL document CHEMBL1157545, “Synthesis and cancer cell cytotoxicity of substituted xanthenes” (Bioorg Med Chem, 2010).
Activity calls are given as the source filed them. The calls are words filed in the database; no cut-off is given here.

Tests used:
DU-145 = experiment: Cytotoxicity against human DU145 cells after 48 hrs; type: functional, cell-based; details: DU-145, 48 h
Nucleic Acid [1] = experiment: Binding affinity to DNA assessed as DNA intercalation at 250 uM; type: nucleic-acid assay
[2] = target: DNA topoisomerase 2-alpha (Homo sapiens) (UniProt P11388); experiment: Inhibition of human DNA topoisomerase 2 at 250 uM by DNA relaxation assay
HeLa = experiment: Cytotoxicity against human HeLa cells after 48 hrs; type: functional, cell-based
Nucleic Acid [3] = experiment: Binding affinity to DNA assessed as DNA intercalation at 50 uM; type: nucleic-acid assay
[4] = target: DNA topoisomerase 2-alpha (Homo sapiens) (UniProt P11388); experiment: Inhibition of human DNA topoisomerase 2 at 50 uM by DNA relaxation assay
MCF7 = experiment: Cytotoxicity against human MCF7 cells after 48 hrs; type: functional, cell-based; details: MCF7, 48 h

Sequence of DNA topoisomerase 2-alpha (Homo sapiens) (P11388 whole entry): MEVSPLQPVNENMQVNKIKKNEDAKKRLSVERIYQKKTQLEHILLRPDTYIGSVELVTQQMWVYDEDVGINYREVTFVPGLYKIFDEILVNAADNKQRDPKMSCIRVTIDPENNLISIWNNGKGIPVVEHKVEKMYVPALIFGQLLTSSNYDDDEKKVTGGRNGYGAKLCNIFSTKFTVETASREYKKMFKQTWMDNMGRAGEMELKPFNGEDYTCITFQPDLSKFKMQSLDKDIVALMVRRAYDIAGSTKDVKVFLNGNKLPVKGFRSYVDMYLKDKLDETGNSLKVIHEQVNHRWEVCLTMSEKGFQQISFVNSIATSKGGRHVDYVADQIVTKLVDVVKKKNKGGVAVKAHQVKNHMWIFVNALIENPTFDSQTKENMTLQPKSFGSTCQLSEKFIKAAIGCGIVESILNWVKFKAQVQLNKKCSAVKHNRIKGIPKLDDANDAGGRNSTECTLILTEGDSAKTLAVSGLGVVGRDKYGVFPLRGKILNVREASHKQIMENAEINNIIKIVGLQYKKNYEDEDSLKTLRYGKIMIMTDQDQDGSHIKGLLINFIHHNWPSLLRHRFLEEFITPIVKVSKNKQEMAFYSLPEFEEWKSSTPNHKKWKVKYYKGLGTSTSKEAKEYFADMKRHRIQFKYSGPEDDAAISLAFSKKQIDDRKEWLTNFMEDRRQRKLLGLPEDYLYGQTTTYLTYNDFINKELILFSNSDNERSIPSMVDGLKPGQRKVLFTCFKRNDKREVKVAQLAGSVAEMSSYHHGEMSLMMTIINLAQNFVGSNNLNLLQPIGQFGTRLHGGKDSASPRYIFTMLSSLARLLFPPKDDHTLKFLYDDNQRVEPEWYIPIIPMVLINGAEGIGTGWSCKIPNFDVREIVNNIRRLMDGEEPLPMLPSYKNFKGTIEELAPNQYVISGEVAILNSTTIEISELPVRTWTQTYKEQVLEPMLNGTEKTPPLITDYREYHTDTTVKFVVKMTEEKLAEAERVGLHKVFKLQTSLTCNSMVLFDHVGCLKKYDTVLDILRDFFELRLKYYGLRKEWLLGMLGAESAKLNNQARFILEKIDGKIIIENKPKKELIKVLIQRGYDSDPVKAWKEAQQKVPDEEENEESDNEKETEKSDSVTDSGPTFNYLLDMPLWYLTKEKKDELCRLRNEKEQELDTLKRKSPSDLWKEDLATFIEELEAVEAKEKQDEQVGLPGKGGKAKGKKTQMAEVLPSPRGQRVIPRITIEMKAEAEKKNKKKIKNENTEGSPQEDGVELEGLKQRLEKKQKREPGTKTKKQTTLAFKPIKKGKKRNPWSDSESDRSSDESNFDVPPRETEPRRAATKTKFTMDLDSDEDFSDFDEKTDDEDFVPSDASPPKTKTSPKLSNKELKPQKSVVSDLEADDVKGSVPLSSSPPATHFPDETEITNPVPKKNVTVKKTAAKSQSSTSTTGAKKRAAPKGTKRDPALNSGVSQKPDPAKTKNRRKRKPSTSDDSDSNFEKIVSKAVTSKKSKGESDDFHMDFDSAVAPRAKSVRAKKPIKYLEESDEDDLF

For `CN1CCN(C(=O)c2ccc3c(c2)Oc2ccc(F)cc2C3(O)c2ccccc2)CC1` (configuration not stated), the IC50 (DU-145) was 84 µM, the Activity (Nucleic Acid [1]) was “inactive” and the inhibition [2] was “inactive”. The IC50 (HeLa) was 109 µM, the Activity (Nucleic Acid [3]) was “inactive” and the inhibition [4] was “inactive”. The IC50 (MCF7) was 62 µM.
In the case of `CN1CCN(C(=O)c2ccc3c(c2)Oc2ccc(F)cc2C3(C)O)CC1` (configuration not stated), the IC50 (DU-145) is reported as greater than 300 µM, the Activity (Nucleic Acid [1]) is reported as “inactive” and the IC50 (HeLa) is reported as greater than 300 µM. For the same compound, the Activity (Nucleic Acid [3]) was “inactive” and the IC50 (MCF7) was 208 µM.
For `CN1CCN(C(=O)c2ccc3c(c2)Oc2ccccc2C3(C)O)CC1` (configuration not stated), the IC50 (DU-145) was 119 µM, the Activity (Nucleic Acid [1]) was “inactive” and the IC50 (HeLa) was 121 µM. For the same compound, the Activity (Nucleic Acid [3]) was “inactive” and the IC50 (MCF7) was 115 µM.
In the case of `O=c1c2ccccc2oc2ccccc12` [XANTHONE], the IC50 (DU-145) is reported as greater than 500 µM, the Activity (Nucleic Acid [1]) is reported as “inactive” and the IC50 (HeLa) is reported as greater than 500 µM. The Activity (Nucleic Acid [3]) was “inactive” and the IC50 (MCF7) was greater than 500 µM.
With `COc1cccc(C2(O)c3ccccc3Oc3cc(C(=O)N4CCN(C)CC4)ccc32)c1` (configuration not stated) the IC50 (DU-145) was 139 µM, the Activity (Nucleic Acid [1]) was “inactive” and the IC50 (HeLa) was 111 µM. The Activity (Nucleic Acid [3]) was “inactive” and the IC50 (MCF7) was 125 µM.
In the case of `COc1cccc(C2(O)c3ccccc3Oc3cc(C(=O)N4CCOCC4)ccc32)c1` (configuration not stated), the IC50 (DU-145) is reported as 163 µM, the Activity (Nucleic Acid [1]) is reported as “inactive” and the IC50 (HeLa) is reported as 153 µM. For the same compound, the Activity (Nucleic Acid [3]) was “inactive” and the IC50 (MCF7) was 151 µM.
For `C=CC1(O)c2ccccc2Oc2cc(C(=O)N3CCN(C)CC3)ccc21` (configuration not stated), the IC50 (DU-145) was 63 µM, the Activity (Nucleic Acid [1]) was “inactive” and the IC50 (HeLa) was 74 µM. The Activity (Nucleic Acid [3]) was “inactive” and the IC50 (MCF7) was 74 µM.
For `CCC1(O)c2ccc(C(=O)N3CCN(C)CC3)cc2Oc2ccc(Cl)cc21` (configuration not stated), the IC50 (DU-145) was 145 µM, the Activity (Nucleic Acid [1]) was “inactive” and the IC50 (HeLa) was 153 µM. The Activity (Nucleic Acid [3]) was “inactive” and the IC50 (MCF7) was 180 µM.
In the case of `CCC1(O)c2ccc(C(=O)N3CCN(C)CC3)cc2Oc2ccc(F)cc21` (configuration not stated), the IC50 (DU-145) is reported as 139 µM, the Activity (Nucleic Acid [1]) is reported as “inactive” and the IC50 (HeLa) is reported as 127 µM. The Activity (Nucleic Acid [3]) was “inactive” and the IC50 (MCF7) was 138 µM.
`CN1CCN(C(=O)c2ccc3c(c2)Oc2ccccc2C3(O)c2ccccc2)CC1` (configuration not stated) was tested, and the IC50 (DU-145) was greater than 300 µM, the Activity (Nucleic Acid [1]) was “inactive” and the IC50 (HeLa) was 170 µM. For the same compound, the Activity (Nucleic Acid [3]) was “inactive” and the IC50 (MCF7) was 169 µM.
In the case of `CCC1(O)c2ccccc2Oc2cc(C(=O)N3CCN(C)CC3)ccc21` (configuration not stated), the IC50 (DU-145) is reported as 195 µM, the Activity (Nucleic Acid [1]) is reported as “inactive” and the IC50 (HeLa) is reported as 213 µM. The Activity (Nucleic Acid [3]) was “inactive” and the IC50 (MCF7) was 218 µM.
With `CN(C)C(=O)c1ccc2c(c1)Oc1ccccc1C2(O)c1ccccc1` (configuration not stated) the IC50 (DU-145) was 59 µM, the Activity (Nucleic Acid [1]) was “inactive” and the inhibition [2] was “inactive”. The IC50 (HeLa) was 67 µM, the Activity (Nucleic Acid [3]) was “inactive” and the inhibition [4] was “inactive”. For the same compound, the IC50 (MCF7) was 62 µM.
In the case of `COc1cccc(C2(O)c3ccc(C(=O)N4CCN(C)CC4)cc3Oc3ccc(Cl)cc32)c1` (configuration not stated), the IC50 (DU-145) is reported as 92 µM, the Activity (Nucleic Acid [1]) is reported as “inactive” and the IC50 (HeLa) is reported as 94 µM. The Activity (Nucleic Acid [3]) was “inactive” and the IC50 (MCF7) was 72 µM.
With `COc1cccc(C2(O)c3ccccc3Oc3cc(C(=O)N(C)C)ccc32)c1` (configuration not stated) the IC50 (DU-145) was 36 µM, the Activity (Nucleic Acid [1]) was “inactive” and the inhibition [2] was “inactive”. For the same compound, the IC50 (HeLa) was 44 µM, the Activity (Nucleic Acid [3]) was “inactive” and the inhibition [4] was “inactive”. For the same compound, the IC50 (MCF7) was 50 µM.
`C=CC1(O)c2ccc(C(=O)N3CCN(C)CC3)cc2Oc2ccc(F)cc21` (configuration not stated) was tested, and the IC50 (DU-145) was greater than 300 µM, the Activity (Nucleic Acid [1]) was “inactive” and the inhibition [2] was “inactive”. For the same compound, the IC50 (HeLa) was 230 µM, the Activity (Nucleic Acid [3]) was “inactive” and the inhibition [4] was “inactive”. The IC50 (MCF7) was 254 µM.
In the case of `COc1cccc(C2(O)c3ccccc3Oc3ccccc32)c1`, the IC50 (DU-145) is reported as 59 µM, the Activity (Nucleic Acid [1]) is reported as “inactive” and the inhibition [2] is reported as “inactive”. For the same compound, the IC50 (HeLa) was 85 µM, the Activity (Nucleic Acid [3]) was “inactive” and the inhibition [4] was “inactive”. It also gave an IC50 (MCF7) of 82 µM.
`CN1CCN(C(=O)c2ccc3c(c2)Oc2ccc(Cl)cc2C3(C)O)CC1` (configuration not stated) was tested, and the IC50 (DU-145) was 241 µM, the Activity (Nucleic Acid [1]) was “inactive” and the IC50 (HeLa) was 264 µM. For the same compound, the Activity (Nucleic Acid [3]) was “inactive” and the IC50 (MCF7) was 160 µM.
With `COc1cccc(C2(O)c3ccc(C(=O)N4CCN(C)CC4)cc3Oc3ccc(F)cc32)c1` (configuration not stated) the IC50 (DU-145) was 55 µM, the Activity (Nucleic Acid [1]) was “inactive” and the inhibition [2] was “inactive”. For the same compound, the IC50 (HeLa) was 85 µM, the Activity (Nucleic Acid [3]) was “inactive” and the inhibition [4] was “inactive”. It also gave an IC50 (MCF7) of 46 µM.
With `CN1CCN(C(=O)c2ccc3c(c2)Oc2ccc(Cl)cc2C3(O)c2ccccc2)CC1` (configuration not stated) the IC50 (DU-145) was 117 µM, the Activity (Nucleic Acid [1]) was “inactive” and the IC50 (HeLa) was 158 µM. For the same compound, the Activity (Nucleic Acid [3]) was “inactive” and the IC50 (MCF7) was 95 µM.
`O=C(c1ccc2c(c1)Oc1ccccc1C2(O)c1ccccc1)N1CCOCC1` (configuration not stated) was tested, and the IC50 (DU-145) was 125 µM, the Activity (Nucleic Acid [1]) was “inactive” and the IC50 (HeLa) was 120 µM. The Activity (Nucleic Acid [3]) was “inactive” and the IC50 (MCF7) was 134 µM.
With `C=CC1(O)c2ccc(C(=O)N3CCN(C)CC3)cc2Oc2ccc(Cl)cc21` (configuration not stated) the IC50 (DU-145) was 208 µM, the Activity (Nucleic Acid [1]) was “inactive” and the IC50 (HeLa) was 285 µM. For the same compound, the Activity (Nucleic Acid [3]) was “inactive” and the IC50 (MCF7) was greater than 500 µM.
In the case of `OC1(c2ccccc2)c2ccccc2Oc2ccccc21`, the IC50 (DU-145) is reported as greater than 500 µM, the Activity (Nucleic Acid [1]) is reported as “inactive” and the IC50 (HeLa) is reported as greater than 500 µM. For the same compound, the Activity (Nucleic Acid [3]) was “inactive” and the IC50 (MCF7) was greater than 500 µM.
